{"source": "patent US20030008338A1", "about": "“Assay methods and kits therefor” (LumiTech (UK) Limited, priority 2000, published 2003)", "assay_type_in_all_cases": "cell-based", "key": {"[1]": {"system": "K562 cells", "assay": "AK release bioluminescence assay, K562 cells incubated with ionomycin", "parameters": "cytolysis versus control cells at the lowest concentration: dose or concentration left out as unconfirmed", "protocol": "(§1) A number of different cell types have been tested for induction of cytotoxicity with soluble agents. Cytolysis is determined after incubation with the agent, when the cell membrane has lost integrity and AK can ‘leak’ out into the surrounding culture medium. The assay is performed by incubating non-microbial (e.g. mammalian) cells, either cell lines or primary cell types including isolated tumour cells, with the agonist(s) of choice. After an appropriate incubation time the cells are simply removed from the incubator and AK activity determined in the culture supernatant. If the cells have been cultured in clear bottomed, white walled plates (Perkin Elmer Life Sciences) in volumes no greater than 100 μl, then the plates are simply placed in a luminometer equipped with injection facilities and 150 μl of AKR added to each of the wells, where an integral reading of light output is measured over 1 second. When using luminometers without injectors the AKR can be added manually preferably using a multichannel pipette. The light output is read as soon after addition of reagent as possible. The increase in light output over the complete medium control is the result of the leakage of AK from damaged cells as a result of incubation with cytolytic inducing substances.\nExample 3: Ionomycin is a calcium ionophore that acts as a mobile ion carrier for Ca^2+. We investigated increasing concentrations of this agent on K562 cells. As with the previous examples, the cells were set up in 100 μl volumes in triplicate wells of a 96 well Isoplate™. The concentrations of ionomycin (Sigma) used were […]. Cells were incubated for three hours in the presence of the agent prior to determination of AK activity. The data shown in FIG. 7 are for the 1-second integral reading taken at time 0 using the Wallac MicroBeta Jet."}, "[2]": {"system": "U937 cells", "assay": "AK release bioluminescence assay, U937 cells incubated with camptothecin", "protocol": "as §1\nExample 2: A second model known to induce secondary necrosis is the incubation of U937 cells (ECACC No: 87010802) with camptothecin (Sigma). The cells were set up in triplicate wells of a white Isoplate™ (Perkin Elmer Life Sciences) at serial doubling dilutions of cells with 1000 nM camptothecin. The cells were then incubated with the drug for 4 hours and AK activity was determined as outlined in example 1. […] In the control cells there was a slight increase in AK activity over the complete medium control, but the increase in the presence of the drug was much greater, nearly 3 fold (2.6)."}, "[3]": {"system": "Cem-7 cells", "assay": "AK (adenylate kinase) release bioluminescence assay, Cem-7 cells incubated with dexamethasone", "protocol": "as §1\nExample 1: We have investigated 37 different cell lines and models of apoptosis/necrosis induction. One of the first models investigated for this assay was the incubation of Cem-7 cells with dexamethasone. Two different experiments were performed: one experiment where cells at different cell numbers/well were incubated with one concentration of dexamethasone (500 nM, Sigma) for 48 and 72 hours, and another experiment where cells at 5000/well were incubated with increasing concentrations of the agent (0, 10, 25, 50, 75, 100, 150, 200 nM) for 72 hours. The cell suspensions were incubated in 100 μl in triplicate wells of a 96 well clear-bottomed white walled microtitre plate (Perkin Elmer Isoplate™). At the end of the incubation period the plates were assayed for AK activity using the Wallac Microbeta Jet, with 150 μl of AKR added and the RLUs (1 second integral) read at time 0 and every 5 minutes for 45 minutes. […] At 2500 cells per well the activity had increased by 71% from 15 913 RLUs at 48 hours to 27 266 RLUs at 72 hours."}, "[4]": {"settings": "camptothecin from 50 to 1000 μM, cells at 2500/well"}}, "data": [{"compound": "C[C@H](CCC(=O)O)C[C@H](C)C[C@H](C)C(=O)/C=C(\\O)[C@H](C)C[C@H](C)C/C=C/[C@@H](C)[C@@H](O)[C@@H](C)[C@@H](O)C[C@@H]1CC[C@@](C)([C@H]2CC[C@@](C)([C@@H](C)O)O2)O1", "note": "[Ionomycin]", "values": [{"measurement": "AK activity with all concentrations of the agent", "setting": "[1]; FIG. 7, increasing concentrations of ionomycin", "result": "significant increase in AK activity"}, {"measurement": "effect on AK activity with increasing concentrations", "setting": "[1]; ionomycin 1, 2, 3, 4 and 5 mM, three hours, time 0 reading", "result": "concentration dependent effect"}, {"measurement": "cytolysis versus control cells at the lowest concentration", "setting": "[1]; lowest ionomycin concentration, three hours", "result": "significant increase in cytolysis"}]}, {"compound": "CC[C@@]1(O)C(=O)OCc2c1cc1n(c2=O)Cc2cc3ccccc3nc2-1", "note": "[camptothecin]", "values": [{"measurement": "increase in AK activity in the presence of the drug", "setting": "[2]; 1000 nM camptothecin, 4 hours", "result": 2.6, "unit": "fold"}, {"measurement": "cell numbers at which the increase in activity was seen", "setting": "[2]; 1000 nM camptothecin, 4 hours, serial doubling dilutions of cells", "result": "above 156 /well"}, {"measurement": "concentration at which cytolysis appears", "setting": "[2]; [4]", "result": 100, "unit": "µM"}, {"measurement": "enzyme (AK) activity with increasing concentrations", "setting": "[2]; [4]", "result": "concentration dependent increase in enzyme activity"}]}, {"compound": "C[C@@H]1C[C@H]2[C@@H]3CCC4=CC(=O)C=C[C@]4(C)[C@@]3(F)[C@@H](O)C[C@]2(C)[C@@]1(O)C(=O)CO", "note": "[dexamethasone]", "values": [{"measurement": "AK release", "setting": "[3]; 200 nM dexamethasone, 72 hours, 5000 cells/well", "result": 16900, "unit": "RLU"}, {"measurement": "increase in AK activity from 48 hours to 72 hours", "setting": "[3]; 500 nM dexamethasone, 2500 cells per well", "result": 71, "unit": "%"}, {"measurement": "AK activity", "setting": "[3]; 500 nM dexamethasone, 48 hours, 2500 cells per well", "result": "15 913 RLUs"}, {"measurement": "AK activity", "setting": "[3]; 500 nM dexamethasone, 72 hours, 2500 cells per well", "result": "27 266 RLUs"}]}]}
